Peptide text beside a SMILES is read from it.
Tests used:
CRF2R = target: T1, CRF2R (Homo sapiens, UniProt Q13324); experiment: CRF2R agonist activation (EC50 / Emax), called comparative CRF binding; type: cell-based; settings: for Emax: read-out: CRF2R Emax
T1 sequence (Q13324 1-411): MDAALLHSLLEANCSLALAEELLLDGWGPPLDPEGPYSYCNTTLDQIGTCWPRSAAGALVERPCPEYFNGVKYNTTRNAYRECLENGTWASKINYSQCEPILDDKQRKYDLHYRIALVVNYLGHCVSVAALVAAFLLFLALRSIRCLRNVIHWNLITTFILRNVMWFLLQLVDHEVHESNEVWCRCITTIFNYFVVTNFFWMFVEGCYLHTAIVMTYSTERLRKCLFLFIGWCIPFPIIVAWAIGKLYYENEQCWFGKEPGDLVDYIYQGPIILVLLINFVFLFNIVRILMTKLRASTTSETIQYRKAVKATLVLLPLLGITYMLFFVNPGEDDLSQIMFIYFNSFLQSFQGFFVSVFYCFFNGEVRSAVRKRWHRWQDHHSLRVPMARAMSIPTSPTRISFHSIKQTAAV
Outline: (§1)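 CRFR-expressing cells + peptide vs vehicle; read-out cAMP (lysate assay) or CRE-linked reporter expression (luciferase, CAT, fluorescent protein, alkaline phosphatase, etc.). Signal compared against vehicle-treated cells.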

CRF1R = target: T2, CRF1R (Homo sapiens, UniProt P34998); experiment: CRF1R agonist activation (EC50 / Emax), called comparative CRF binding; type: cell-based; settings: for Emax: read-out: CRF1R Emax
T2 sequence (P34998 24-415): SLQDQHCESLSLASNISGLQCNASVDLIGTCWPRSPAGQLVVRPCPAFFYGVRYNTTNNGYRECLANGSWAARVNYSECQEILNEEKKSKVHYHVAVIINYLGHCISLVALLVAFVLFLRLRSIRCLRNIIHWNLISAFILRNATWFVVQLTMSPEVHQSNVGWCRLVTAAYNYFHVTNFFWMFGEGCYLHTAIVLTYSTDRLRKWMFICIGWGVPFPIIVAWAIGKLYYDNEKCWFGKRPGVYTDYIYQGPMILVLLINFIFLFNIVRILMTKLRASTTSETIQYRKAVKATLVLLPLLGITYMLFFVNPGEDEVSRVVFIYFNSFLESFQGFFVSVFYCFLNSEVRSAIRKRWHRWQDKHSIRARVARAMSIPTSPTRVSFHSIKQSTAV
Outline: as §1

Row | SMILES | Emax (CRF2R) [%] | Emax (CRF1R) [%] | EC50 (CRF2R; read-out: CRF2R EC50) [nM] | EC50 (CRF1R; read-out: CRF1R EC50) [nM]
1 | CC[C@H](C)[C@H](NC(=O)[C@H](CCCNC(=N)N)NC(=O)[C@H](C)NC(=O)[C@H](CC(N)=O)NC(=O)[C@H](CCC(N)=O)NC(=O)[C@H](CCC(=O)O)NC(=O)[C@H](C)NC(=O)[C@H](CCCNC(=N)N)NC(=O)[C@H](CCC(=O)O)NC(=O)[C@H](CCCNC(=N)N)NC(=O)[C@H](CCC(N)=O)NC(=O)[C@H](CO)NC(=O)[C@H](CCC(N)=O)NC(=O)[C@@H](NC(=O)[C@H](CCCNC(=N)N)NC(=O)[C@H](C)NC(=O)[C@H](CC(C)C)NC(=O)[C@H](CCC(=O)O)NC(=O)[C@H](CC(C)C)NC(=O)[C@H](CC(C)C)NC(=O)[C@@H](NC(=O)[C@H](CCCNC(=N)N)NC(=O)[C@H](CC(C)C)NC(=O)[C@H](CC(C)C)NC(=O)[C@H](CC(C)C)NC(=O)[C@H](CC(C)C)NC(=O)[C@@H]1CCCN1C(=O)[C@H](CC(C)C)NC(=O)[C@H](CC(=O)O)NC(=O)[C@@H](NC(=O)[C@H](CO)NC(=O)[C@H](CC(C)C)NC(=O)[C@H](CO)NC(=O)[C@@H]1CCCN1C(=O)[C@H](CC(N)=O)NC(=O)[C@@H](N)CC(=O)O)[C@@H](C)CC)[C@@H](C)O)[C@@H](C)O)C(=O)N[C@@H](Cc1ccccc1)C(=O)N[C@@H](C)C(=O)N[C@@H](CCCNC(=N)N)C(=O)N[C@H](C(N)=O)C(C)C [compound 340] (H-DNPSLSIDLPLLLLRTLLELARTQSQRERAEQNARIFARV-NH2; N-terminus assumed) | 100 | 96 | – | –
2 | CC[C@H](C)[C@H](NC(=O)[C@H](CCCNC(=N)N)NC(=O)[C@H](C)NC(=O)[C@H](CC(N)=O)NC(=O)[C@H](CCC(N)=O)NC(=O)[C@H](CCC(=O)O)NC(=O)[C@H](C)NC(=O)[C@H](CCCNC(=N)N)NC(=O)[C@H](CCC(=O)O)NC(=O)[C@H](CCCNC(=N)N)NC(=O)[C@H](CCC(N)=O)NC(=O)[C@H](CO)NC(=O)[C@H](CCC(N)=O)NC(=O)[C@@H](NC(=O)[C@H](CCCCN)NC(=O)[C@H](CCC(=O)O)NC(=O)[C@H](CC(C)C)NC(=O)[C@H](CCC(=O)O)NC(=O)[C@H](CC(C)C)NC(=O)[C@H](CC(C)C)NC(=O)[C@@H](NC(=O)[C@H](CCCNC(=N)N)NC(=O)[C@H](CC(C)C)NC(=O)[C@H](CC(C)C)NC(=O)[C@H](CC(C)C)NC(=O)[C@H](CC(C)C)NC(=O)[C@@H]1CCCN1C(=O)[C@H](CC(C)C)NC(=O)[C@H](CC(=O)O)NC(=O)[C@@H](NC(=O)[C@H](CO)NC(=O)[C@H](CC(C)C)NC(=O)[C@H](CO)NC(=O)[C@@H]1CCCN1C(=O)[C@H](CC(N)=O)NC(=O)[C@@H](N)CC(=O)O)[C@@H](C)CC)[C@@H](C)O)[C@@H](C)O)C(=O)N[C@@H](Cc1ccccc1)C(=O)N[C@@H](C)C(=O)N[C@@H](CCCNC(=N)N)C(=O)N[C@H](C(N)=O)C(C)C [compound 341] (H-DNPSLSIDLPLLLLRTLLELEKTQSQRERAEQNARIFARV-NH2; N-terminus assumed) | 95.5 | 82.3 | – | –
3 | CC[C@H](C)[C@H](NC(=O)[C@H](C)NC(=O)[C@H](CC(N)=O)NC(=O)[C@H](CCC(N)=O)NC(=O)[C@H](CCC(=O)O)NC(=O)[C@H](C)NC(=O)[C@H](CCCNC(=N)N)NC(=O)[C@H](CCC(=O)O)NC(=O)[C@H](CCCNC(=N)N)NC(=O)[C@H](CCC(N)=O)NC(=O)[C@H](CO)NC(=O)[C@H](CCC(N)=O)NC(=O)[C@@H](NC(=O)[C@H](CCCCN)NC(=O)[C@H](CCC(=O)O)NC(=O)[C@H](CC(C)C)NC(=O)[C@H](CCC(=O)O)NC(=O)[C@H](CC(C)C)NC(=O)[C@H](CC(C)C)NC(=O)[C@@H](NC(=O)[C@H](CCCNC(=N)N)NC(=O)[C@H](CC(C)C)NC(=O)[C@H](CC(C)C)NC(=O)[C@H](CCC(N)=O)NC(=O)[C@H](CC(C)C)NC(=O)[C@@H]1CCCN1C(=O)[C@H](CC(C)C)NC(=O)[C@H](CC(=O)O)NC(=O)[C@@H](NC(=O)[C@H](CO)NC(=O)[C@H](CC(C)C)NC(=O)[C@H](CO)NC(=O)[C@@H]1CCCN1C(=O)[C@H](CC(N)=O)NC(=O)[C@@H](N)CC(=O)O)[C@@H](C)CC)[C@@H](C)O)[C@@H](C)O)C(=O)N[C@H](C(=O)N[C@@H](Cc1ccccc1)C(=O)N[C@@H](C)C(=O)N[C@@H](CO)C(=O)N[C@H](C(N)=O)C(C)C)[C@@H](C)CC [compound 342] (H-DNPSLSIDLPLQLLRTLLELEKTQSQRERAEQNAIIFASV-NH2; N-terminus assumed) | 92.2 | 19.6 | – | –
4 | CC[C@H](C)[C@H](NC(=O)[C@H](C)NC(=O)[C@H](CC(N)=O)NC(=O)[C@H](CCC(N)=O)NC(=O)[C@H](CCC(=O)O)NC(=O)[C@H](C)NC(=O)[C@H](CCCNC(=N)N)NC(=O)[C@H](CCC(=O)O)NC(=O)[C@H](CCCNC(=N)N)NC(=O)[C@H](CCC(N)=O)NC(=O)[C@H](CO)NC(=O)[C@H](CCC(N)=O)NC(=O)[C@@H](NC(=O)[C@H](CCCCN)NC(=O)[C@H](CCC(=O)O)NC(=O)[C@H](CC(C)C)NC(=O)[C@H](CCC(=O)O)NC(=O)[C@H](CC(C)C)NC(=O)[C@H](CC(C)C)NC(=O)[C@@H](NC(=O)[C@H](CCCNC(=N)N)NC(=O)[C@H](CC(C)C)NC(=O)[C@H](CC(C)C)NC(=O)[C@H](Cc1ccccc1)NC(=O)[C@H](CC(C)C)NC(=O)[C@@H]1CCCN1C(=O)[C@H](CC(C)C)NC(=O)[C@H](CC(=O)O)NC(=O)[C@@H](NC(=O)[C@H](CO)NC(=O)[C@H](CC(C)C)NC(=O)[C@H](CO)NC(=O)[C@@H]1CCCN1C(=O)[C@H](CC(N)=O)NC(=O)[C@@H](N)CC(=O)O)[C@@H](C)CC)[C@@H](C)O)[C@@H](C)O)C(=O)N[C@H](C(=O)N[C@@H](Cc1ccccc1)C(=O)N[C@@H](C)C(=O)N[C@@H](CO)C(=O)N[C@H](C(N)=O)C(C)C)[C@@H](C)CC [compound 343] (H-DNPSLSIDLPLFLLRTLLELEKTQSQRERAEQNAIIFASV-NH2; N-terminus assumed) | 96.5 | 62.5 | – | –
5 | CC[C@H](C)[C@H](NC(=O)[C@H](C)NC(=O)[C@H](CC(N)=O)NC(=O)[C@H](CCC(N)=O)NC(=O)[C@H](CCC(=O)O)NC(=O)[C@H](C)NC(=O)[C@H](CCCNC(=N)N)NC(=O)[C@H](CCC(=O)O)NC(=O)[C@H](CCCNC(=N)N)NC(=O)[C@H](CCC(N)=O)NC(=O)[C@H](CO)NC(=O)[C@H](CCC(N)=O)NC(=O)[C@@H](NC(=O)[C@H](CCCCN)NC(=O)[C@H](CCC(=O)O)NC(=O)[C@H](CC(C)C)NC(=O)[C@H](CCC(=O)O)NC(=O)[C@H](CC(C)C)NC(=O)[C@H](CC(C)C)NC(=O)[C@@H](NC(=O)[C@H](CCCNC(=N)N)NC(=O)[C@H](CC(C)C)NC(=O)[C@H](CC(C)C)NC(=O)[C@H](CC(C)C)NC(=O)[C@H](CC(C)C)NC(=O)[C@@H]1CCCN1C(=O)[C@H](CC(C)C)NC(=O)[C@H](CC(=O)O)NC(=O)[C@@H](NC(=O)[C@H](CO)NC(=O)[C@H](CC(C)C)NC(=O)[C@H](CO)NC(=O)[C@@H]1CCCN1)[C@@H](C)CC)[C@@H](C)O)[C@@H](C)O)C(=O)N[C@H](C(=O)N[C@@H](Cc1ccccc1)C(=O)N[C@@H](C)C(=O)N[C@@H](CO)C(=O)N[C@H](C(N)=O)C(C)C)[C@@H](C)CC [compound 344] (H-PSLSIDLPLLLLRTLLELEKTQSQRERAEQNAIIFASV-NH2) | 94.5 | 77.7 | – | –
6 | CC[C@H](C)[C@H](NC(=O)[C@H](C)NC(=O)[C@H](CC(N)=O)NC(=O)[C@H](CCC(N)=O)NC(=O)[C@H](CCC(=O)O)NC(=O)[C@H](C)NC(=O)[C@H](CCCNC(=N)N)NC(=O)[C@H](CCC(=O)O)NC(=O)[C@H](CCCNC(=N)N)NC(=O)[C@H](CCC(N)=O)NC(=O)[C@H](CO)NC(=O)[C@H](CCC(N)=O)NC(=O)[C@@H](NC(=O)[C@H](CCCCN)NC(=O)[C@H](CCC(=O)O)NC(=O)[C@H](CC(C)C)NC(=O)[C@H](CCC(=O)O)NC(=O)[C@H](CC(C)C)NC(=O)[C@H](CC(C)C)NC(=O)[C@@H](NC(=O)[C@H](CCCNC(=N)N)NC(=O)[C@H](CC(C)C)NC(=O)[C@H](CC(C)C)NC(=O)[C@@H](NC(=O)[C@H](CC(C)C)NC(=O)[C@@H]1CCCN1C(=O)[C@H](CC(C)C)NC(=O)[C@H](CC(=O)O)NC(=O)[C@@H](NC(=O)[C@H](CO)NC(=O)[C@H](CC(C)C)NC(=O)[C@H](CO)NC(=O)[C@@H]1CCCN1C(=O)[C@H](CC(N)=O)NC(=O)[C@@H](N)CC(=O)O)[C@@H](C)CC)[C@@H](C)CC)[C@@H](C)O)[C@@H](C)O)C(=O)N[C@H](C(=O)N[C@@H](Cc1ccccc1)C(=O)N[C@@H](C)C(=O)N[C@@H](CO)C(=O)N[C@H](C(N)=O)C(C)C)[C@@H](C)CC [compound 345] (H-DNPSLSIDLPLILLRTLLELEKTQSQRERAEQNAIIFASV-NH2; N-terminus assumed) | 100 | 18.8 | 39.7 | ≥ 1000
